According to ChEMBL document CHEMBL1138655, “Synthesis and biological studies of 1-amino beta-carbolines” (Bioorg Med Chem Lett, 2004):
Converted amounts (≈) assume the structure as drawn.

Legend:
[1] = test system: Trypanosoma brucei rhodesiense; test: inhibitory concentration against Trypanosoma brucei rhodesiense determined; type: functional, organism-based
M14 = test: Concentration required for 50% growth inhibition against human melanoma M14 cell lines; type: functional
K562 = test: Concentration required for 50% growth inhibition against human leukemia K-562 cell lines; type: functional
UACC-62 = test: Concentration required for 50% growth inhibition against human melanoma UACC-62 cell lines; type: functional
HOP-92 = test: Concentration required for 50% growth inhibition against human non small cell lung cancer HOP-92; type: functional
OVCAR-3 = test: Concentration required for 50% growth inhibition against human ovarian OVCAR-3 cell lines; type: functional
Trypanosoma cruzi = test: inhibitory concentration against Trypanosoma cruzi was determined; type: functional, organism-based
Leishmania donovani = test: inhibitory concentration against Leishmania donovani was determined; type: functional, organism-based
Plasmodium falciparum = test: Inhibitory concentration for Plasmodium falciparum; type: functional, organism-based
HT-29 = test: Concentration required for 50% growth inhibition against human colon HT-29 cell lines; type: functional
MDA-MB-231 = test: Concentration required for 50% growth inhibition against human breast MDA-MB-231/ATCC cell lines; type: functional

Question: Which results are given for `CCN(CC)CCCC(C)Nc1nccc2c1[nH]c1ccccc12` (configuration not stated)?
Answer: IC50 [1]: 0.13 µg/mL (≈ 0.401 µM); GI50 (M14): 16.4 µM; GI50 (K562): 12.2 µM; GI50 (UACC-62): 24 µM; GI50 (HOP-92): 4.5 µM; GI50 (OVCAR-3): 22.8 µM; IC50 (Trypanosoma cruzi): 3 µg/mL (≈ 9.25 µM); IC50 (Leishmania donovani): > 90 µg/mL; IC50 (Plasmodium falciparum): 0.42 µg/mL (≈ 1.29 µM); GI50 (HT-29): 22.9 µM

Question: With `CCN(CC)N1CCN(c2[nH]ccc3c4ccccc4nc2-3)CC1` as the compound, how does the IC50 [1] read?
Answer: 0.63 µg/mL (≈ 1.95 µM)

Question: What about the IC50 (Trypanosoma cruzi) of the same compound?
Answer: 5.8 µg/mL (≈ 17.9 µM)

Question: What about the IC50 (Leishmania donovani) of the same compound?
Answer: > 90 µg/mL

Question: And the IC50 (Plasmodium falciparum)?
Answer: 0.41 µg/mL (≈ 1.27 µM)

Question: Which IC50 [1] does the source give for `c1ccc2c3cc[nH]c(N4CCN(N5CCCCC5)CC4)c-3nc2c1` here?
Answer: 1.8 µg/mL (≈ 5.37 µM)

Question: And the IC50 (Trypanosoma cruzi)?
Answer: 2.35 µg/mL (≈ 7.01 µM)

Question: And the IC50 (Leishmania donovani)?
Answer: > 90 µg/mL

Question: What about the IC50 (Plasmodium falciparum) of the same compound?
Answer: 0.39 µg/mL (≈ 1.16 µM)

Question: `CCN(CC)CCCNc1nccc2c1[nH]c1ccccc12` was tested. Which IC50 [1] did it give?
Answer: 0.18 µg/mL (≈ 0.607 µM)

Question: And the GI50 (M14)?
Answer: 2 µM

Question: What about the GI50 (K562) of the same compound?
Answer: 3.2 µM

Question: What about the GI50 (UACC-62) of the same compound?
Answer: 2.3 µM

Question: And the GI50 (MDA-MB-231)?
Answer: 5.2 µM

Question: And the GI50 (HOP-92)?
Answer: 0.38 µM

Question: What about the GI50 (OVCAR-3) of the same compound?
Answer: 1.6 µM

Question: And the IC50 (Trypanosoma cruzi)?
Answer: 1.62 µg/mL (≈ 5.47 µM)

Question: And the IC50 (Leishmania donovani)?
Answer: > 90 µg/mL

Question: And the IC50 (Plasmodium falciparum)?
Answer: 0.64 µg/mL (≈ 2.16 µM)

Question: What about the GI50 (HT-29) of the same compound?
Answer: 2.7 µM

Question: Which results are given for `c1ccc2c(c1)[nH]c1c(N3CCCCC3)nccc12`?
Answer: IC50 [1]: 0.13 µg/mL (≈ 0.517 µM); IC50 (Trypanosoma cruzi): > 30 µg/mL; IC50 (Leishmania donovani): > 90 µg/mL; IC50 (Plasmodium falciparum): 1.2 µg/mL (≈ 4.77 µM)

Question: How did the IC50 [1] turn out when `OCCNc1[nH]ccc2c3ccccc3nc1-2` was run?
Answer: 1.8 µg/mL (≈ 7.92 µM)

Question: What about the IC50 (Trypanosoma cruzi) of the same compound?
Answer: 4.25 µg/mL (≈ 18.7 µM)

Question: And the IC50 (Leishmania donovani)?
Answer: > 90 µg/mL

Question: And the IC50 (Plasmodium falciparum)?
Answer: 2.4 µg/mL (≈ 10.6 µM)

Question: For `CN1CCN(c2nccc3c2[nH]c2ccccc23)CC1`, which IC50 [1] is on record?
Answer: 0.63 µg/mL (≈ 2.37 µM)

Question: And the GI50 (M14)?
Answer: 14.9 µM

Question: What about the GI50 (K562) of the same compound?
Answer: 22.5 µM

Question: And the GI50 (UACC-62)?
Answer: 17.8 µM

Question: And the GI50 (MDA-MB-231)?
Answer: 3.9 µM

Question: And the GI50 (HOP-92)?
Answer: 18.6 µM

Question: And the GI50 (OVCAR-3)?
Answer: 19.9 µM

Question: And the IC50 (Trypanosoma cruzi)?
Answer: 4.3 µg/mL (≈ 16.1 µM)

Question: What about the IC50 (Leishmania donovani) of the same compound?
Answer: > 90 µg/mL

Question: And the IC50 (Plasmodium falciparum)?
Answer: 0.62 µg/mL (≈ 2.33 µM)

Question: What does the source list for `c1ccc2c3cc[nH]c(N4CCN(N5CCCCCC5)CC4)c-3nc2c1`?
Answer: IC50 [1]: 0.61 µg/mL (≈ 1.75 µM); IC50 (Trypanosoma cruzi): 6.5 µg/mL (≈ 18.6 µM); IC50 (Leishmania donovani): > 90 µg/mL; IC50 (Plasmodium falciparum): 0.35 µg/mL (≈ 1 µM)

Question: What does the source list for `c1ccc2c3cc[nH]c(N4CCN(N5CCCC5)CC4)c-3nc2c1`?
Answer: IC50 [1]: 0.52 µg/mL (≈ 1.62 µM); IC50 (Trypanosoma cruzi): 6.1 µg/mL (≈ 19 µM); IC50 (Leishmania donovani): > 90 µg/mL; IC50 (Plasmodium falciparum): 0.45 µg/mL (≈ 1.4 µM)

Question: With `c1ccc2c(c1)[nH]c1c(N3CCOCC3)nccc12` as the compound, how does the IC50 [1] read?
Answer: 18.2 µg/mL (≈ 71.9 µM)

Question: What about the IC50 (Trypanosoma cruzi) of the same compound?
Answer: 25.1 µg/mL (≈ 99.1 µM)

Question: And the IC50 (Leishmania donovani)?
Answer: > 90 µg/mL

Question: And the IC50 (Plasmodium falciparum)?
Answer: 4.59 µg/mL (≈ 18.1 µM)

Question: What does the source list for `CN(C)CCCNc1nccc2c1[nH]c1ccccc12`?
Answer: IC50 [1]: 28.1 µg/mL (≈ 105 µM); IC50 (Trypanosoma cruzi): 4.2 µg/mL (≈ 15.7 µM); IC50 (Leishmania donovani): > 90 µg/mL; IC50 (Plasmodium falciparum): 0.45 µg/mL (≈ 1.68 µM)

Question: For `OC1CCCN(c2[nH]ccc3c4ccccc4nc2-3)C1` (configuration not stated), which IC50 [1] is on record?
Answer: 8.9 µg/mL (≈ 33.3 µM)

Question: And the IC50 (Trypanosoma cruzi)?
Answer: 19.3 µg/mL (≈ 72.4 µM)

Question: What about the IC50 (Leishmania donovani) of the same compound?
Answer: > 90 µg/mL

Question: What about the IC50 (Plasmodium falciparum) of the same compound?
Answer: 3.4 µg/mL (≈ 12.7 µM)
